Experimental data reported in patent publication US9777008B2, “PRMT5 inhibitors and uses thereof” (Epizyme, Inc., priority 2012, dated 2017).

These compounds were tested against PRMT5/MEP50 (Homo sapiens (Human), UniProt O14744) (assay: PRMT5 Biochemical Assay (PRMT5/MEP50 enzyme assay on peptide substrate, 3H-SAM Flashplate)).
From the text: S-adenosylmethionine (SAM), S-adenosylhomocysteine (SAH), bicine, KCl, Tween20, dimethylsulfoxide (DMSO), bovine skin gelatin (BSG), and Tris(2-carboxyethyl)phosphine hydrochloride solution (TCEP) were purchased from Sigma-Aldrich at the highest level of purity possible. ^3H-SAM was purchase from American Radiolabeled Chemicals with a specific activity of 80 Ci/mmol. 384-well streptavidin Flashplates were purchased from PerkinElmer.
Peptide representative of human histone H4 residues 1-15 was synthesized with a C-terminal linker-affinity tag motif and a C-terminal amide cap by 21st Century Biochemicals. The peptide was high high-performance liquid chromatography (HPLC) purified to greater than 95% purity and confirmed by liquid chromatography mass spectrometry (LC-MS). The sequence was Ac-[…][K-Biot]-amide (SEQ ID NO.:3).
Molecular Biology: Full-length human PRMT5 (NM_006109.3) transcript variant 1 clone was amplified from a fetal brain cDNA library, incorporating flanking 5′ sequence encoding a FLAG tag ([…]) (SEQ ID NO.:4) fused directly to Ala 2 of PRMT5. Full-length human MEP50 (NM_024102) clone was amplified from a human testis cDNA library incorporating a 5′ sequence encoding a 6-histidine tag (MHHHHHH) (SEQ ID NO.:5) fused directly to Arg 2 of MEP50. The amplified genes were sublconed into pENTR/D/TEV (Life Technologies) and subsequently transferred by Gateway™ attL×attR recombination to pDEST8 baculvirus expression vector (Life Technologies).
Recombinant baculovirus and Baculovirus-Infected Insect Cells (BIIC) were generated according to Bac-to-Bac kit instructions (Life Technologies) and Wasilko, 2006, respectively. Protein over-expression was accomplished by infecting exponentially growing Spodoptera frugiperda (SF9) cell culture at 1.2×10^6 cell/ml with a 5000 fold dilution of BIIC stock. Infections were carried out at 27° C. for 72 hours, harvested by centrifugation, and stored at −80° C. for purification.
Flag-PRMT5/6His-MeP50 was eluted with 300 mM Imidazole in the same buffer. The purity of recovered protein was 87%. Reference: Wasilko, D. J. and S. E. Lee: “TIPS: titerless infected-cells preservation and scale-up” Bioprocess J., 5 (2006), pp. 29-32.
General Procedure for PRMT5/MEP50 Enzyme Assays on Peptide Substrates.
The assays were all performed in a buffer consisting of 20 mM Bicine (pH=7.6), 1 mM TCEP, 0.005% BSG, and 0.002% Tween20, prepared on the day of use. Compounds in 100% DMSO (1 ul) were spotted into a polypropylene 384-well V-bottom plates (Greiner) using a Platemate Plus outfitted with a 384-channel head (Thermo Scientific). DMSO (1 ul) was added to Columns 11, 12, 23, 24, rows A-H for the maximum signal control and 1 ul of SAH, a known product and inhibitor of PRMT5/MEP50, was added to columns 11, 12, 23, 24, rows I-P for the minimum signal control. A cocktail (40 ul) containing the PRMT5/MEP50 enzyme and the peptide was added by Multidrop Combi (Thermo-Fisher). The compounds were allowed to incubate with PRMT5/MEP50 for 30 min at 25 degrees Celsius, then a cocktail (10 ul) containing ^3H-SAM was added to initiate the reaction (final volume=51 ul). The final concentrations of the components were as follows: PRMT5/MEP50 was 4 nM, ^3H-SAM was 75 nM, peptide was 40 nM, SAH in the minimum signal control wells was 100 uM, and the DMSO concentration was 1%. The assays were stopped by the addition of non-radioactive SAM (10 ul) to a final concentration of 600 uM, which dilutes the ^3H-SAM to a level where its incorporation into the peptide substrate is no longer detectable. 50 ul of the reaction in the 384-well polypropylene plate was then transferred to a 384-well Flashplate and the biotinylated peptides were allowed to bind to the streptavidin surface for at least 1 hour before being washed three times with 0.1% Tween20 in a Biotek ELx405 plate washer. […]

Sequence of PRMT5/MEP50 (O14744 other isoform, or with tags, fused parts or gaps): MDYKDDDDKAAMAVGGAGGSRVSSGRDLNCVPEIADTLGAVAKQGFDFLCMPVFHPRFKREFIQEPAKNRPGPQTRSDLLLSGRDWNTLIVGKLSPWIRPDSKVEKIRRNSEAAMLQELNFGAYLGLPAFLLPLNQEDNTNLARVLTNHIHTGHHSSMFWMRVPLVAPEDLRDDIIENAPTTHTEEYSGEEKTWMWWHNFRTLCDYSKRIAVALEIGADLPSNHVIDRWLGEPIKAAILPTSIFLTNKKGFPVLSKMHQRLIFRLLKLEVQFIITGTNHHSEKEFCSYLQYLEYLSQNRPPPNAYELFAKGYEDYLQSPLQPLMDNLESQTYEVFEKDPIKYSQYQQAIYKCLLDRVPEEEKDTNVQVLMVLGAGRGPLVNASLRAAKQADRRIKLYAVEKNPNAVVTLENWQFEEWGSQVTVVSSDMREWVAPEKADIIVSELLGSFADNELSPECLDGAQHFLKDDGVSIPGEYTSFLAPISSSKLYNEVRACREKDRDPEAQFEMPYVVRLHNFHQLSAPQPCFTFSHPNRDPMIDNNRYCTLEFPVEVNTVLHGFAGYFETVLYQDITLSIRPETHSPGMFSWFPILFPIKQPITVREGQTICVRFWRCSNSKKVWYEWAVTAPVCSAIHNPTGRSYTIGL
Sequence of PRMT5/MEP50 (Q9BQA1 other isoform, or with tags, fused parts or gaps partner): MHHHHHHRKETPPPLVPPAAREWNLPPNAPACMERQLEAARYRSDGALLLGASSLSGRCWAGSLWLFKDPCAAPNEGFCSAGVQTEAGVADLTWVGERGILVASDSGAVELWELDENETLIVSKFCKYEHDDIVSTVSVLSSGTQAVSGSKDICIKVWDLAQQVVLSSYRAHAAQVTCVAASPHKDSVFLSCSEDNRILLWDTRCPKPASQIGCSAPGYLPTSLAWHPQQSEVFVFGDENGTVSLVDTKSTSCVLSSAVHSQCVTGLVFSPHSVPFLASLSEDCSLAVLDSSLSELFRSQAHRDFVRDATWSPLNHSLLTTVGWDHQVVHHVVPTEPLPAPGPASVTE

| Compound | IC50 |
| --- | --- |
| Cn1cnc2ccc(-c3ccnc(NC[C@H](O)CN4CCc5ccccc5C4)c3)cc21 [Compound 275] | < 100 nM |
| CN1CCC(OCC(O)CN2CCc3ccccc3C2)C1 (stereo not drawn) [Compound 307] | > 40000 nM |
| OC(CNc1cc(-c2ccc3ncn(C4CCOCC4)c3c2)ccn1)CN1CCc2ccccc2C1 (stereo not drawn) [Compound 251, 1-(3,4-dihydroisoquinolin-2(1H)-yl)-3-((4-(1-(tetrahydro-2H-pyran-4-yl)-1H-benzo[d]imidazol-6-yl)pyridin-2-yl)amino)propan-2-ol] | < 100 nM |
| COc1cccc2c1CCN(CC(O)COc1cccc(CNC3CCCC3)c1)C2 (stereo not drawn) [Compound 54] | > 40000 nM |
| Cn1cnc2ccc(-c3ccnc(NCC(O)CN4CCc5ccccc5C4)c3)cc21 (stereo not drawn) [Compound 118, 1-(3,4-Dihydroisoquinolin-2(1H)-yl)-3-((4-(1-methyl-1H-benzo[d]imidazol-6-yl)pyridin-2-yl)amino)propan-2-ol] | < 100 nM |
| OC(COCC1CCCCO1)CN1CCc2ccccc2C1 (stereo not drawn) [Compound 304] | > 40000 nM |
| CCOC(=O)C1c2ccccc2CCN1CC(O)COc1cccc(-c2ccc3ncn(C)c3c2)c1 (stereo not drawn) [Compound 193] | > 40000 nM |
| O=C(Cn1ccc2cnc(-c3ccnc(NCC(O)CN4CCc5ccccc5C4)c3)nc21)N1CCCCC1 (stereo not drawn) [Compound 246] | < 100 nM |
| OC(COC1CCCNC1)CN1CCc2ccccc2C1 (stereo not drawn) [Compound 297] | > 40000 nM |
| CN1CC(n2cnc3ccc(-c4ccnc(NCC(O)CN5CCc6ccccc6C5)c4)cc32)C1 (stereo not drawn) [Compound 230] | < 100 nM |
| O=C(Cn1ccc2cnc(-c3ccnc(NCC(O)CN4CCc5ccccc5C4)c3)nc21)N1CCCC1 (stereo not drawn) [Compound 233] | < 100 nM |
| CC(=O)N1CCC(n2ccc3cnc(-c4ccnc(NCC(O)CN5CCc6ccccc6C5)c4)nc32)CC1 (stereo not drawn) [Compound 256] | < 100 nM |
| CN(CC(O)CN1CCc2ccccc2C1)c1cccc(CNC2CCOCC2)c1 (stereo not drawn) [Compound 116] | < 100 nM |
| Cn1ncc2ccc(-c3ccnc(NCC(O)CN4CCc5ccccc5C4)c3)cc21 (stereo not drawn) [Compound 226] | < 100 nM |

Further lines, results first:

| IC50 | Compound |
| --- | --- |
| 101 to 1000 nM | Cn1cnc2ccc(-c3cccc(OC[C@@H](O)CN4CCc5ccccc5C4)c3)cc21 [Compound 173] |
| < 100 nM | OC(COc1cccc(-c2ncc3ccn(C4CCNCC4)c3n2)c1)CN1CCc2ccccc2C1 (stereo not drawn) [Compound 253] |
| < 100 nM | Cn1cnc2ccc(-c3cccc(OC[C@H](O)CN4CCc5ccccc5C4)c3)cc21 [Compound 174] |
| 101 to 1000 nM | O[C@H](COc1cccc(CNC2CCCC2)c1)CN1CCc2ccccc2C1 [Compound 22] |
| > 40000 nM | Cn1cnc2ccc(-c3cccc(OCC(O)CN4CCc5ccccc5C4COc4ccccc4)c3)cc21 (stereo not drawn) [Compound 178] |
| < 100 nM | Cn1cnc2ccc(-c3cccc(NCC(O)CN4CCc5ccccc5C4)c3)cc21 (stereo not drawn) [Compound 102, 1-(3,4-dihydroisoquinolin-2(1H)-yl)-3-((3-(1-methyl-1H-benzo[d]imidazol-6-yl)phenyl)amino)propan-2-ol] |
| < 100 nM | CN1CC(n2cnc3ccc(-c4cccc(OCC(O)CN5CCc6ccccc6C5)c4)cc32)C1 (stereo not drawn) [Compound 218, 1-(3,4-dihydroisoquinolin-2(1H)-yl)-3-(3-(1-(1-methylazetidin-3-yl)-1H-benzo[d]imidazol-6-yl)phenoxy)propan-2-ol] |
| 101 to 1000 nM | O[C@H](COc1cccc(-c2cccc3cccnc23)c1)CN1CCc2ccccc2C1 [Compound 258, (S)-1-(3,4-dihydroisoquinolin-2(1H)-yl)-3-(3-(quinolin-8-yl)phenoxy)propan-2-ol] |
| 10000 to 40000 nM | COc1ccc(Cn2ccc(-c3ccc(OC[C@@H](O)CN4CCc5ccccc5C4)cc3)n2)cc1 [Compound 42] |
| > 40000 nM | CN(C)S(=O)(=O)c1cccc(-c2cccc(OCC(O)CN3CCc4ccccc4C3)c2)c1 (stereo not drawn) [Compound 61] |
| < 100 nM | CC(=O)N(CC(O)CN1CCc2ccccc2C1)c1cccc(-c2ccc3ncn(C)c3c2)c1 (stereo not drawn) [Compound 273, N-(3-(3,4-dihydroisoquinolin-2(1H)-yl)-2-hydroxypropyl)-N-(3-(1-methyl-1H-benzo[d]imidazol-6-yl)phenyl)acetamide] |
| < 100 nM | OC(COc1cccc(-c2cccc3cccnc23)c1)CN1CCc2ccccc2C1 (stereo not drawn) [Compound 65, 1-(3,4-dihydroisoquinolin-2(1H)-yl)-3-(3-(quinolin-8-yl)phenoxy)propan-2-ol] |
| < 100 nM | O[C@@H](COc1cccc(-c2cccc3cccnc23)c1)CN1CCc2ccccc2C1 [Compound 257, (R)-1-(3,4-dihydroisoquinolin-2(1H)-yl)-3-(3-(quinolin-8-yl)phenoxy)propan-2-ol] |
| < 100 nM | OC(COc1cccc(-c2ccc3ncn(C4CCNCC4)c3c2)c1)CN1CCc2ccccc2C1 (stereo not drawn) [Compound 220] |
| < 100 nM | Cn1ccc2ccc(-c3ccnc(NCC(O)CN4CCc5ccccc5C4)c3)cc21 (stereo not drawn) [Compound 227] |
| < 100 nM | Cn1ccc2cnc(-c3cccc(OCC(O)CN4CCc5ccccc5C4)c3)nc21 (stereo not drawn) [Compound 141, 1-(3,4-dihydroisoquinolin-2(1H)-yl)-3-(3-(7-methyl-7H-pyrrolo[2,3-d]pyrimidin-2-yl)phenoxy)propan-2-ol] |
| < 100 nM | Cn1cc2ccc(-c3cccc(NCC(O)CN4CCc5ccccc5C4)c3)nc2n1 (stereo not drawn) [Compound 261] |
| 1000 to 10000 nM | Cn1cncc1C(=O)Nc1cccc(OC[C@@H](O)CN2CCc3ccccc3C2)c1 [Compound 260] |
| < 100 nM | Cn1cc2ccc(-c3cccc(OCC(O)CN4CCc5ccccc5C4)c3)nc2n1 (stereo not drawn) [Compound 210, 1-(3,4-dihydroisoquinolin-2(1H)-yl)-3-(3-(2-methyl-2H-pyrazolo[3,4-b]pyridin-6-yl)phenoxy)propan-2-ol] |
